The target of the assay is T1, human GPR40 (Homo sapiens, UniProt O14842).
T1 construct: expressed in transfected cells
The experiment in a line: Evaluation of human GPR40 agonist activity with increase in intracellular Ca2+ concentration as an index (FLIPR Tetra). It is filed as cell-based. As to conditions: test compound 1 μM; CHO(dhfr−) cells stably expressing human GPR40; 100% = 1 μM WO2009/048527 Example 99.2, 0% = DMSO. The protocol: Evaluation of Human GPR40 Agonist Activity with Increase in Intracellular Ca^2+ Concentration as an Index
CHO(dhfr−) cells that stably expressed human GPR40 were suspended in MEMα (Nikken Bio Medical Laboratory) containing 10% dialysis serum (GEMINI BIO-PRODUCTS), 10 mM HEPES (Invitrogen), 100 U/mL penicillin, 100 μg/mL streptomycin (Invitrogen), and plated on a 384 well black/clear cell culture plate at 10,000 cells/well. After culture overnight in a CO2 incubator at 37° C., the culture supernatant was removed, and a loading buffer [dye attached to Calcium 5 Assay Kit (Molecular Devices) was dissolved in an assay buffer (20 mM HEPES, 0.2% fatty acid-free BSA (Sigma-Aldrich), 2.5 mM probenecid (DOJINDO)-containing HBSS (Invitrogen)) added with 0.025% Cremophor EL (DOJINDO)] was added at 37.5 μL/well. After incubation in a CO2 incubator at 37° C. for 1 hr, the cells were stood at room temperature for 15 min, an assay buffer containing the test compound at a final concentration of 1 μM was added at 12.5 μL/well in FLIPR Tetra (Molecular Devices), and the fluorescence amount was successively measured. Human GPR40 agonist activity calculated using an increase in the intracellular Ca^2+ concentration as an index, wherein the activity of 1 μM of the compound described in WO 2009/048527 (WO2009/048527 Example 99.2) was 100%, and the activity when DMSO was added instead of the test compound was 0%.

SMILES strings stand for the structures.

T1 sequence (O14842 whole entry): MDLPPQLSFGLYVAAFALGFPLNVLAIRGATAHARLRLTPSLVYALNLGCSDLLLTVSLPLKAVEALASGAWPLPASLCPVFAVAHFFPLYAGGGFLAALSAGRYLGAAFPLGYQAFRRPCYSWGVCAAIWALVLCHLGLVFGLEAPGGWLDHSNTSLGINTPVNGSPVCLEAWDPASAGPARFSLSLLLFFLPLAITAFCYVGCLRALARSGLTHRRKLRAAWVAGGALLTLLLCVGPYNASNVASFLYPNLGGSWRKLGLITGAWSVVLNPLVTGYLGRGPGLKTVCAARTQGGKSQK

`COc1ccc(F)c(-c2ccc(COc3cc(CCC(=O)O)ccc3C)nc2CC(C)(C)C)c1` [Example 13, 3-(3-((6-(2,2-dimethylpropyl)-5-(2-fluoro-5-methoxyphenyl)pyridin-2-yl)methoxy)-4-methylphenyl)propanoic acid] returned an activation at 1 µM of 110%.

Values taken from patent US9181186B2, “Aromatic ring compound” (TAKEDA PHARMACEUTICAL COMPANY LIMITED, priority 2012, dated 2015).
